Source: patent publication US10751339B2, “Substituted aminopyrimidine compounds and methods of use” (SUNSHINE LAKE PHARMA CO., LTD., priority 2018, dated 2020)

Assays:
[1] = Compound stability in human liver microsomes; type: in vitro ADME; settings: pH 7.4; for CLint scaled at 5 μM: liver microsomes, in vivo CLint extrapolated from human liver microsome incubation; for half-life at 5 μM: human liver microsomes 0.5 mg protein/mL, compound 5 μM, NADPH, 37° C., read-out: Human T1/2
Method: (§1) Human or rat liver microsomes incubations were conducted in duplicate in polypropylene tubes. The typical incubation mixtures consisted of human or rat liver microsomes (0.5 mg protein/mL), compounds of interest (5 μM) and NADPH (1.0 mM) in a total volume of 200 μL potassium phosphate buffer (PBS, 100 mM, pH 7.4). Compounds were dissolved in DMSO and diluted with PBS such that the final concentration of DMSO was 0.05%. The enzymatic reactions were commenced with the addition of protein after a 3-min preincubation and incubated in a water bath open to the air at 37° C. Reactions were terminated at various time points (0, 5, 10, 15, 30, 60 min) by adding equal volume of ice-cold acetonitrile. The samples were stored at −80° C. until LC/MS/MS assays.
(§2) The concentrations of compounds in the incubation mixtures of human or rat liver microsomes were determined by a LC/MS/MS method. The ranges of the linearity in the concentration range were determined for each tested compounds.
(§3) A parallel incubation was performed using denatured microsomes as the negative control, and reactions were terminated at various time points (0, 15, 60 min) after incubation at 37° C.
(§4) Dextromethorphan (70 μM) was selected as the positive control, and reactions were terminated at various time points (0, 5, 10, 15, 30, 60 min) after incubation at 37° C. Both positive and negative control samples were included in each assay to ensure the integrity of the microsomal incubation system.
(§5) The concentrations of compounds in human or rat liver microsome incubations were plotted as a percentage of the relevant zero time point control for each reaction.

[2] = Compound stability in rat liver microsomes; type: in vitro ADME; settings: pH 7.4; for CLint scaled at 5 μM: liver microsomes, in vivo CLint extrapolated from rat liver microsome incubation; for half-life at 5 μM: rat liver microsomes 0.5 mg protein/mL, compound 5 μM, NADPH, 37° C., read-out: Rat T1/2
Method: as §1, §2, §3, §4, §5

Row | Structure (SMILES) | CLint scaled at 5 μM [1] [L/h/kg] | half-life at 5 μM [1] [min] | CLint scaled at 5 μM [2] [L/h/kg] | half-life at 5 μM [2] [min]
1 | Cc1nc(-c2c(N)ncnc2N[C@@H](C)c2nc3cccc(C#CC(C)O)c3c(=O)n2-c2ccccc2)no1 (stereo partly drawn) [Example 6, 2-((S)-1-((6-amino-5-(5-methyl-1,2,4-oxadiazol-3-yl)pyrimidin-4-yl)amino)ethyl)-5-(3-hydroxybut-1-yn-1-yl)-3-phenylquinazolin-4(3H)-one] | 1.45 | 71.9 | 2.5 | 59.7
2 | CC#Cc1cccc2nc([C@H](CC)Nc3ncnc(N)c3-c3nnc(C)o3)n(C3CC3)c(=O)c12 [Example 27, (S)-2-(1-((6-amino-5-(5-methyl-1,3,4-oxadiazol-2-yl)pyrimidin-4-yl)amino)propyl)-3-cyclopropyl-5-(prop-1-yn-1-yl)quinazolin-4(3H)-one] | 6.28 | 16.6 | 5.46 | 27.3
3 | Cc1noc(-c2c(N)ncnc2N[C@@H](C)c2nc3cccc(C#CCO)c3c(=O)n2C2CC2)n1 [Example 30, (S)-2-(1-((6-amino-5-(3-methyl-1,2,4-oxadiazol-5-yl)pyrimidin-4-yl)amino)ethyl)-3-cyclopropyl-5-(3-hydroxyprop-1-yn-1-yl)quinazolin-4(3H)-one] | 1.57 | 66.4 | 1.33 | 112
4 | C#Cc1cccc2nc([C@H](C)Nc3ncnc(N)c3-c3nc(C)no3)n(C3CC3)c(=O)c12 [Example 43, (S)-2-(1-((6-amino-5-(3-methyl-1,2,4-oxadiazol-5-yl)pyrimidin-4-1)amino)ethyl)-3-cyclopropyl-5-ethynylquinazolin-4(3H)-one] | 6.28 | 16.6 | 6.69 | 22.3
5 | C#Cc1cccc2nc([C@H](C)Nc3ncnc(N)c3-c3nc(C)no3)n(-c3ccccc3)c(=O)c12 [Example 44, (S)-2-(1-((6-amino-5-(3-methyl-1,2,4-oxadiazol-5-yl)pyrimidin-4-yl)amino)ethyl)-5-ethynyl-3-phenylquinazolin-4(3H)-one] | 17.8 | 5.85 | 10.2 | 14.7
6 | C#Cc1cccc2nc([C@H](C)Nc3ncnc(N)c3-c3nnc(C)o3)n(-c3ccccc3)c(=O)c12 [Example 45, (S)-2-(1-((6-amino-5-(5-methyl-1,3,4-oxadiazol-2-yl)pyrimidin-4-yl)amino)ethyl)-5-ethynyl-3-phenylquinazolin-4(3H)-one] | 18.1 | 5.77 | 5.23 | 28.5
7 | C#Cc1cccc2nc([C@H](C)Nc3ncnc(N)c3-c3nnc(C)o3)n(C3CC3)c(=O)c12 [Example 50, (S)-2-(1-((6-amino-5-(5-methyl-1,3 4-oxadiazol-2-yl)pyrimidin-4-yl)amino)ethyl)-3-cyclopropyl-5-ethynylquinazolin-4(3H)-one] | 2.86 | 36.5 | 2.09 | 71.4
8 | C#Cc1cccc2nc([C@H](C)Nc3ncnc(N)c3-c3noc(C)n3)n(C3CC3)c(=O)c12 [Example 51, (S)-2-(1-((6-amino-5-(5-methyl-1,2,4-oxadiazol-3-yl)pyrimidin-4-yl)amino)ethyl)-3-cyclopropyl-5-ethynylquinazolin-4(3H)-one] | 7.07 | 14.8 | 7.99 | 18.7
9 | C#Cc1cccc2nc([C@H](C)Nc3ncnc(N)c3-c3ncn(C)n3)n(C3CC3)c(=O)c12 [Example 53, (S)-2-(1-((6-amino-5-(1-methyl-1H-1,2,4-triazol-3-yl)pyrimidin-4-yl)amino)ethyl)-3-cyclopropyl-5-ethynylquinazolin-4(3H)-one] | 4.47 | 23.4 | 4.25 | 35

Other lines, results leading:

Row | CLint scaled at 5 μM [1] [L/h/kg] | half-life at 5 μM [1] [min] | CLint scaled at 5 μM [2] [L/h/kg] | half-life at 5 μM [2] [min] | Structure (SMILES)
10 | 0.94 | 111 | 1.98 | 75.4 | CC(O)C#Cc1cccc2nc([C@H](C)Nc3ncnc(N)c3-c3nnn(C)n3)n(-c3ccccc3)c(=O)c12 (stereo partly drawn) [Example 8, 2-((S)-1-((6-amino-5-(2-methyl-2H-tetrazol-5-yl)pyrimidin-4-yl)amino)ethyl)-5-(3-hydroxybut-1-yn-1-yl)-3-phenylquinazolin-4(3H)-one]
11 | 3.78 | 27.6 | 5.84 | 25.5 | CC#Cc1cccc2nc([C@H](C)Nc3ncnc(N)c3-c3noc(C)n3)n(-c3ccccc3)c(=O)c12 [Example 11, (S)-2-(1-((6-amino-5-(5-methyl-1,2,4-oxadiazol-3-yl)pyrimidin-4-yl)amino)ethyl)-3-phenyl-5-(prop-1-yn-1-yl)quinazolin-4(3H)-one]
12 | 5.88 | 17.7 | 4.25 | 35 | CC#Cc1cccc2nc([C@H](C)Nc3ncnc(N)c3-c3nnn(C)n3)n(-c3ccccc3)c(=O)c12 [Example 12, (S)-2-(1-((6-amino-5-(2-methyl-2H-tetrazol-5-yl)pyrimidin-4-yl)amino)ethyl)-3-phenyl-5-(prop-1-yn-1-yl)quinazolin-4(3H)-one]
13 | 1.73 | 60.2 | 2.58 | 57.7 | C[C@H](Nc1ncnc(N)c1-c1nnn(C)n1)c1nc2cccc(C#CCO)c2c(=O)n1-c1ccccc1 [Example 39, (S)-2-(1-((6-amino-5-(2-methyl-2H-tetrazol-5-yl)pyrimidin-4-yl)amino)ethyl)-5-(3-hydroxyprop-1-yn-1-yl)-3-phenylquinazolin-4(3H)-one]
14 | 2.95 | 35.3 | 3.65 | 40.8 | C[C@H](Nc1ncnc(N)c1-c1ncn(C)n1)c1nc2cccc(C#CCO)c2c(=O)n1-c1ccccc1 [Example 46, (S)-2-(1-((6-amino-5-(1-methyl-1H-1,2,4-triazol-3-yl)pyrimidin-4-yl)amino)ethyl)-5-(3-hydroxyprop-1-yn-1-yl)-3-phenylquinazolin-4(3H)-one]
15 | 17.2 | 6.05 | 8.39 | 17.8 | C#Cc1cccc2nc([C@H](C)Nc3ncnc(N)c3-c3noc(C)n3)n(-c3ccccc3)c(=O)c12 [Example 47, (S)-2-(1-((6-amino-5-(5-methyl-1,2,4-oxadiazol-3-yl)pyrimidin-4-yl)amino)ethyl)-5-ethynyl-3-phenylquinazolin-4(3H)-one]
16 | 18.6 | 5.6 | 10.3 | 14.5 | C#Cc1cccc2nc([C@H](C)Nc3ncnc(N)c3-c3nnn(C)n3)n(-c3ccccc3)c(=O)c12 [Example 48, (S)-2-(1-((6-amino-5-(2-methyl-2H-tetrazol-5-yl)pyrimidin-4-yl)amino)ethyl)-5-ethynyl-3-phenylquinazolin-4(3H)-one]
17 | 15.6 | 6.7 | 6.43 | 23.2 | C#Cc1cccc2nc([C@H](C)Nc3ncnc(N)c3-c3ncn(C)n3)n(-c3ccccc3)c(=O)c12 [Example 49, (S)-2-(1-((6-amino-5-(1-methyl-1H-1,2,4-triazol-3-yl)pyrimidin-4-yl)amino)ethyl)-5-ethynyl-3-phenylquinazolin-4(3H)-one]
